Data as given in patent US12433865B2, “Compositions comprising PGI2-receptor agonists and processes for the preparation thereof” (Arena Pharmaceuticals, Inc., priority 2018, dated 2025).

What was measured:
[1] = Release (dissolution) profile of tablets, USP Apparatus 1 (baskets); assay type: physicochemical; conditions: for mean value (n = 6) of % of Compound 1 released: tablet, 25 mg Methocel K100 Premium LVCR
Description: USP Apparatus 1 (BASKETS) is described, for example, in the United States Pharmacopeial Convention, Feb. 1, 2012, Chapter <711> (“Dissolution”), incorporated by reference herein in its entirety. See http://www.usp.org/sites/default/files/usp_pdf/EN/USPNF/revisions/m99470-gc_711.pdf. The USP Apparatus 1 (baskets) assembly consists of the following: a vessel, which may be covered, made of glass or other inert, transparent material; a motor; a metallic drive shaft; and a cylindrical basket. The materials should not sorb, react, or interfere with the specimen being tested. The vessel is partially immersed in a suitable water bath of any convenient size or heated by a suitable device such as a heating jacket. The water bath or heating device permits holding the temperature inside the vessel at 37±0.5° during the test and keeping the bath fluid in constant, smooth motion. No part of the assembly, including the environment in which the assembly is placed, contributes significant motion, agitation, or vibration beyond that due to the smoothly rotating stirring element. An apparatus that permits observation of the specimen and stirring element during the test is preferable. The vessel is cylindrical, with a hemispherical bottom and with one of the following dimensions and capacities: for a nominal capacity of 1 L, the height is 160 mm to 210 mm and its inside diameter is 98 mm to 106 mm; for a nominal capacity of 2 L, the height is 280 mm to 300 mm and its inside diameter is 98 mm to 106 mm; and for a nominal capacity of 4 L, the height is 280 mm to 300 mm and its inside diameter is 145 mm to 155 mm. Its sides are flanged at the top. A fitted cover may be used to retard evaporation. If a cover is used, it provides sufficient openings to allow ready insertion of the thermometer and withdrawal of specimens. The shaft is positioned so that its axis is not more than 2 mm at any point from the vertical axis of the vessel and rotates smoothly and without significant wobble that could affect the results. The vertical center line of the blade passes through the axis of the shaft so that the bottom of the blade is flush with the bottom of the shaft. A distance of 25 f 2 mm between the bottom of the blade and the inside bottom of the vessel is maintained during the test. The metallic or suitably inert, rigid blade and shaft comprise a single entity. A suitable two-part detachable design may be used provided the assembly remains firmly engaged during the test.
A speed-regulating device is used that allows the shaft rotation speed to be selected and maintained at the specified rate within +4%. Shaft and basket components of the stirring element are fabricated of stainless steel, type 316, or other inert material. A basket having a gold coating of about 0.0001 inch (2.5 μm) thick may be used. A dosage unit is placed in a dry basket at the beginning of each test. The distance between the inside bottom of the vessel and the bottom of the basket is maintained at 25±2 mm during the test.
The release profiles for modified-release tablets were measured using USP Apparatus 1 (baskets).
All release profiles disclosed in Tables 6a-6d were measured with USP Apparatus 1 (baskets) at 100 rpm in 500 mL of aqueous sodium phosphate at a concentration of 0.05 M (pH=6.8). The values in a given table relate to tablets obtained from the same batch. Values shown represent mean values over a number of dissolution tests (“n” in each table) in each case.

[2] = Open-label, fixed sequence single-dose pharmacokinetic study in healthy subjects (Example 7 A); assay type: in vivo, human
Protocol: A. An open-label, fixed sequence, non-randomized study in two cohorts of healthy male and non-pregnant, non-lactating female subjects was conducted. Two cohorts with twelve subjects in each were enrolled to ensure data in ten evaluable subjects per cohort.
Each subject in Cohort 1 received each of the following regimens, in the fasted state, in a sequential manner over four treatment periods: • Regimen A (0.03 mg immediate-release Compound 1): 1×0.03 mg Compound 1 immediate-release capsule. • Regimen B (0.06 mg modified-release Compound 1): 1×0.06 mg Compound 1 modified-release tablet as disclosed herein. • Regimen C (0.12 mg modified-release Compound 1): 2×0.06 mg Compound 1 modified-release tablets as disclosed herein. • Regimen D (0.18 mg modified-release Compound 1) 3×0.06 mg Compound 1 modified-release tablets as disclosed herein.
Subjects received each regimen in the morning of Day 1, following an overnight fast of a minimum of 8 hours. PK samples were taken from subjects at 72 hours post-dose. There was a minimum washout period of 7 days between each administration of investigational medicinal product (IMP) (i.e., selexipag film-coated tablet(s), Compound 1 immediate-release capsule(s), and/or Compound 1 modified-release tablet(s)).
For Cohort 1, subjects received Regimens […] in a sequential manner at consecutive treatment periods.
Venous blood samples were withdrawn at regular time intervals. Plasma concentration data for Compound 1 and the selexipag parent and active metabolite were analyzed using appropriate non-compartmental techniques to obtain estimates of one or more of the following parameters: • Tlag • Tmax • Cmax • C12 • C24 • AUC(0-last) • AUC(0-inf) • AUC % extrap • lambda-z • T1/2e1 • CL/F • Frel: relative bioavailability of 0.06 mg Compound 1 tablets compared to the reference 0.03 mg Compound 1 capsule Pharmacodynamic Assessments:
One or more of the above pharmacokinetic parameters were determined at one or more of the following time points: pre-dose and (referring to hours after administration): 0.5, 1, 1.5, 2, 3, 4, 5, 6, 8, 10, 12, 16, 20, 24, 36, 48, and 72 hours.

[3] = 0.06-0.18 mg modified-release tablets vs 0.03 mg immediate-release capsule
[4] = single oral dose, fasted healthy subjects

release rate of tablets relative to modified-release capsule ([1]; 0.5 mg tablet with 40% HPMC K4M CR): faster | mean value (n = 6) of % of Compound 1 released ([1]; Table 6a: initial release profile, 0.05 mg Compound 1, 25 mg Methocel K4M Premium CR, 60 min): 6.9% | mean value (n = 6) of % of Compound 1 released ([1]; Table 6a: initial release profile, 0.05 mg Compound 1, 25 mg Methocel K4M Premium CR, 120 min): 25.3% | mean value (n = 6) of % of Compound 1 released ([1]; Table 6a: initial release profile, 0.05 mg Compound 1, 25 mg Methocel K4M Premium CR, 180 min): 35.8% | mean value (n = 6) of % of Compound 1 released ([1]; Table 6a: initial release profile, 0.05 mg Compound 1, 25 mg Methocel K4M Premium CR, 240 min): 45.1% | mean value (n = 6) of % of Compound 1 released ([1]; Table 6a: initial release profile, 0.05 mg Compound 1, 25 mg Methocel K4M Premium CR, 360 min): 62% | mean value (n = 6) of % of Compound 1 released ([1]; Table 6a: initial release profile, 0.05 mg Compound 1, 25 mg Methocel K4M Premium CR, 480 min): 74.8% | mean value (n = 6) of % of Compound 1 released ([1]; Table 6a: initial release profile, 0.05 mg Compound 1, 25 mg Methocel K4M Premium CR, 600 min): 86.6% | mean value (n = 6) of % of Compound 1 released ([1]; Table 6a: initial release profile, 0.05 mg Compound 1, 25 mg Methocel K4M Premium CR, 840 min): 100.4% | mean value (n = 6) of % of Compound 1 released ([1]; Table 6b: initial release profile, 0.5 mg Compound 1, 25 mg Methocel K4M Premium CR, 60 min): 17.9% | mean value (n = 6) of % of Compound 1 released ([1]; Table 6b: initial release profile, 0.5 mg Compound 1, 25 mg Methocel K4M Premium CR, 120 min): 27.3% | mean value (n = 6) of % of Compound 1 released ([1]; Table 6b: initial release profile, 0.5 mg Compound 1, 25 mg Methocel K4M Premium CR, 180 min): 36.9% | mean value (n = 6) of % of Compound 1 released ([1]; Table 6b: initial release profile, 0.5 mg Compound 1, 25 mg Methocel K4M Premium CR, 240 min): 45.5% | mean value (n = 6) of % of Compound 1 released ([1]; Table 6b: initial release profile, 0.5 mg Compound 1, 25 mg Methocel K4M Premium CR, 360 min): 61.1% | mean value (n = 6) of % of Compound 1 released ([1]; Table 6b: initial release profile, 0.5 mg Compound 1, 25 mg Methocel K4M Premium CR, 480 min): 74.2% | mean value (n = 6) of % of Compound 1 released ([1]; Table 6b: initial release profile, 0.5 mg Compound 1, 25 mg Methocel K4M Premium CR, 600 min): 84.8% | mean value (n = 6) of % of Compound 1 released ([1]; Table 6b: initial release profile, 0.5 mg Compound 1, 25 mg Methocel K4M Premium CR, 840 min): 98.1% | mean value (n = 6) of % of Compound 1 released ([1]; Table 6c: after storage at 40° C. and 75% RH for 6 months, 0.05 mg Compound 1, 25 mg Methocel K4M Premium CR, 60 min): 17% | mean value (n = 6) of % of Compound 1 released ([1]; Table 6c: after storage at 40° C. and 75% RH for 6 months, 0.05 mg Compound 1, 25 mg Methocel K4M Premium CR, 120 min): 27.1% | mean value (n = 6) of % of Compound 1 released ([1]; Table 6c: after storage at 40° C. and 75% RH for 6 months, 0.05 mg Compound 1, 25 mg Methocel K4M Premium CR, 180 min): 36.9% | mean value (n = 6) of % of Compound 1 released ([1]; Table 6c: after storage at 40° C. and 75% RH for 6 months, 0.05 mg Compound 1, 25 mg Methocel K4M Premium CR, 240 min): 45.4% | mean value (n = 6) of % of Compound 1 released ([1]; Table 6c: after storage at 40° C. and 75% RH for 6 months, 0.05 mg Compound 1, 25 mg Methocel K4M Premium CR, 360 min): 61.1% | mean value (n = 6) of % of Compound 1 released ([1]; Table 6c: after storage at 40° C. and 75% RH for 6 months, 0.05 mg Compound 1, 25 mg Methocel K4M Premium CR, 480 min): 75.8% | mean value (n = 6) of % of Compound 1 released ([1]; Table 6c: after storage at 40° C. and 75% RH for 6 months, 0.05 mg Compound 1, 25 mg Methocel K4M Premium CR, 600 min): 86.9% | mean value (n = 6) of % of Compound 1 released ([1]; Table 6c: after storage at 40° C. and 75% RH for 6 months, 0.05 mg Compound 1, 25 mg Methocel K4M Premium CR, 840 min): 100% | mean value (n = 6) of % of Compound 1 released ([1]; Table 6d: after storage at 40° C. and 75% RH for 6 months, 0.5 mg Compound 1, 25 mg Methocel K4M Premium CR, 60 min): 6.8% | mean value (n = 6) of % of Compound 1 released ([1]; Table 6d: after storage at 40° C. and 75% RH for 6 months, 0.5 mg Compound 1, 25 mg Methocel K4M Premium CR, 120 min): 24.3% | mean value (n = 6) of % of Compound 1 released ([1]; Table 6d: after storage at 40° C. and 75% RH for 6 months, 0.5 mg Compound 1, 25 mg Methocel K4M Premium CR, 180 min): 33% | mean value (n = 6) of % of Compound 1 released ([1]; Table 6d: after storage at 40° C. and 75% RH for 6 months, 0.5 mg Compound 1, 25 mg Methocel K4M Premium CR, 240 min): 41.3% | mean value (n = 6) of % of Compound 1 released ([1]; Table 6d: after storage at 40° C. and 75% RH for 6 months, 0.5 mg Compound 1, 25 mg Methocel K4M Premium CR, 360 min): 55.5% | mean value (n = 6) of % of Compound 1 released ([1]; Table 6d: after storage at 40° C. and 75% RH for 6 months, 0.5 mg Compound 1, 25 mg Methocel K4M Premium CR, 480 min): 67.9% | mean value (n = 6) of % of Compound 1 released ([1]; Table 6d: after storage at 40° C. and 75% RH for 6 months, 0.5 mg Compound 1, 25 mg Methocel K4M Premium CR, 600 min): 79.4% | mean value (n = 6) of % of Compound 1 released ([1]; Table 6d: after storage at 40° C. and 75% RH for 6 months, 0.5 mg Compound 1, 25 mg Methocel K4M Premium CR, 840 min): 94.7% | change of release profile following storage over time ([1]; modified-release tablets (FIGS. 12-14), storage at 40° C. and 75% RH for six months): did not change significantly | release rate of tablets relative to modified-release capsule ([1]; tablet with 30% HPMC K4M and 20% HPMC K100 LVCR): slightly faster | release rate of tablets relative to modified-release capsule ([1]; tablet with 40% HPMC K4M and 10% HPMC K100 LVCR, time points <6 hrs): faster | release rate of tablets relative to modified-release capsule ([1]; tablet with 40% HPMC K4M and 10% HPMC K100 LVCR, time points ≥6 hrs): slower | difference of percentage by weight of compound released, initial vs after storage ([1]; tablets 0.05 mg and 0.5 mg (FIGS. 12 and 13), storage at 40° C. and 75% RH for six months, any time point equal to or greater than 2 hours): ≤ 10% | dose-adjusted total exposure (AUC(0-last)) compared to 0.03 mg immediate release capsule ([2]; 0.18 mg modified-release tablet): similar | relative bioavailability based on individual dose-adjusted Cmax vs immediate-release capsule ([2]; 0.06, 0.12 and 0.18 mg modified-release tablet): statistically significantly lower | dose-adjusted peak plasma exposure (Cmax/D), geometric mean ratios modified-release vs immediate-release [2, 3]: 28.7-41.2% | dose-adjusted total plasma exposure (AUC/D), geometric mean ratios modified-release vs immediate-release [2, 3]: 63.3-97.9% | relative bioavailability based on individual dose-adjusted AUC(0-last) vs immediate-release capsule ([2]; 0.06 and 0.12 mg modified-release tablet): statistically significantly lower | half-life ([2]; both sexes, human, plasma, oral, modified-release tablets, across all dose levels (0.06, 0.12, 0.18 mg), read-out: geometric mean half-life): 19 to 23 h | Tmax ([2]; both sexes, human, plasma, single oral administration of 0.06, 0.12 and 0.18 mg modified-release tablets, read-out: median Tmax): 4 to 10 h | plasma concentrations at 24 hours post-dose compared to immediate-release formulation ([2]; modified-release tablet formulation): higher | increase of systemic exposure (Cmax and AUC) with dose ([2]; oral modified-release tablet formulation): slightly higher than dose-proportional | Cmax, modified-release tablet vs immediate-release capsule [2, 4]: reduced | Tmax, modified-release tablet vs immediate-release capsule [2, 4]: increased | total plasma concentrations, modified-release tablet vs immediate-release capsule [2, 4]: similar
Compound: O=C(O)COC[C@H]1CC[C@H](COC(=O)N(c2ccccc2)c2ccc(Cl)cc2)CC1 [Compound 1, 2-(((1r,4r)-4-(((4-chlorophenyl)(phenyl)carbamoyloxy)methyl)cyclohexyl)methoxy)acetic acid]
